This note sets out measurements from patent publication US7932262B2 (Novartis AG, priority 2006, dated 2011).

Where two headings read alike, the source gives them in different places.

The subject of one test is A2780 cells. As to the kind of experiment: Cell Proliferation Assay (Cell Titer Glo), A2780. To be noted: Homo sapiens, A2780 cells, read-out: CPEC50 A2780. It is filed as cell-based. In a few lines:
(§1)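 Following a 3-day compound exposure (37° C., 5% CO2) of A2780 or PC3MM cells plated at 1000 per well, viability was measured by Cell Titer Glo luminescence in fresh medium, read 10 min after reagent addition.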
In general terms: ATP-based viability assays read luminescence as a measure of living cells.

In test [1] the test system is pAkt308 (phosphorylation of Akt at T308) in PC-3 cells. Briefly: pAkt T308 ECL Assay in PC-3 cells. It counts as cell-based. To be noted: Homo sapiens, 6 h, six hours with compound, read-out: PAKT308 PC3 IC50. The method, then: VI. The pAkt^T308 ECL Assay Protocol
On Day 1, PC-3 cells were seeded at 15,000 cells/well in 100 μL/well ([…]) growth media into black-walled, clear bottom, poly-L-lysine coated plates. The cells were incubated overnight in a 37° C., 5% CO2 incubator.
On Day 2, a MSD ECL plate was blocked for two hours with 150 μL per well of 3% MSD blocker A.
Test compounds were diluted to 500× in DMSO and then were subjected to further serial dilution using a BioMek 2000 instrument. DMSO diluted compounds were then diluted into growth media and then added to the cell plates.
The cell plates incubated with compounds for six hours in a 37° C., 5% CO2 incubator after which the growth medium was removed and 55 μl of MSD lysis buffer was added to cell plates on ice. The plates were lysed on ice for five minutes followed by 15 minutes of vigorous shaking on a plate shaker at 4° C. The blocked MSD assay plates were washed twice with 1×MSD wash buffer followed by the addition of cell lysate as follows: 30 μl of cell lysate was added to the pAkt308 plates and 13 μl of lysate+12 μl lysis buffer was added to the tAkt plates. The plates were then sealed and shaken at 4° C. overnight.
On Day 3, the MSD plates were washed four times with 1×MSD wash buffer then, 25 μl/well of MSD SULFO-TAG antibodies diluted to 10 nM final concentration in 1% blocker. A buffer was added to the antibody diluent which was added to assay plates. The plates were then sealed and incubated at RT for 1.5 hour. The plates were then washed twice with 1×MSD wash buffer followed by the addition of 150 μl/well of 1.5×MSD read buffer. The plates were read immediately after the addition of read buffer using a Trilux instrument. […]

Another test addresses T1, PDK1 kinase (Homo sapiens, UniProt O15530).
T1 sequence (O15530 1-556): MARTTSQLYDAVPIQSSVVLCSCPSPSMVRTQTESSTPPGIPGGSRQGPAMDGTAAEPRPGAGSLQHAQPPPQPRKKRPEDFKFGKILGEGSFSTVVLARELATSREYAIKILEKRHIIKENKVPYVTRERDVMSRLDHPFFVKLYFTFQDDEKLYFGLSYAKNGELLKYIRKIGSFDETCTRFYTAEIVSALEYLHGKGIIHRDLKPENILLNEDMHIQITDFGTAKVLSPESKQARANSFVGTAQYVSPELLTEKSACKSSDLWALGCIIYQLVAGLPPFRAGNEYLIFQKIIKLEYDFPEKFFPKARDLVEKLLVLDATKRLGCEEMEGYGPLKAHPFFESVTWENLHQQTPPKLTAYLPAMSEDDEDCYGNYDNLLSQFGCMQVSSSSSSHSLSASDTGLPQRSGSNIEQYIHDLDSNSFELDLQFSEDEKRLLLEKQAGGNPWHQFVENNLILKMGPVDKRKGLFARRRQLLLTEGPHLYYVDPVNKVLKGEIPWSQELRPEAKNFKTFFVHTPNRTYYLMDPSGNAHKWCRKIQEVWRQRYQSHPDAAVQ
Briefly: PDK1 Kinase Alpha Screen Assay. To be noted: read-out: PDK1 IC50. It is filed as biochemical. The method in brief:
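AlphaScreen readout: phospho-peptide captured by phospho-(Ser/Thr) PKA substrate antibody (0.3 mg/ml) on protein A acceptor beads, biotin peptide on streptavidin donor beads (25 μg/ml each), overnight at room temperature. Kinase step used 50 nM PDK1-4 peptide, 10 uM ATP, 3-18 hours.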

The subject of another test is PC-3 cells. Briefly: Cell Proliferation Assay (Cell Titer Glo), PC-3 cell line. It is filed as cell-based. To be noted: Homo sapiens. In a few lines:
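Cell Titer Glo luminescence, read after fresh medium replaced the dosing medium, gave viability of PC-3 cells plated at 1000 cells/well. Compounds, 1:3 serially diluted in DMSO at 500× and then in medium, were added after 3-5 h adhesion and incubated 3 days at 37° C.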

In the next test the test system is PC3MM cells. Briefly: Cell Proliferation Assay (Cell Titer Glo), PC3MM. It is filed as cell-based. As to conditions: cell proliferation, PC3MM cells; read-out: CPEC50 PC3MM. In a few lines: as §1
The mark [2] stands for this setting: PC-3, 72 h, PC-3 cells, 3 days incubation, read-out: CP EC50 PC3.

As a reminder, the IC50 is the concentration at which inhibition is half-maximal.

`O=S(=O)(c1cccc(Nc2ncc3cccc(OC4CCNCC4)c3n2)c1)N1CCOCC1` [Compound 5, [3-(Morpholine-4-sulfonyl)-phenyl]-[8-(piperidin-4-yloxy)-quinazolin-2-yl]-amine]: the EC50 in the test on A2780 cells (72 h, 3 days incubation) was < 5 µM. For the same molecule, the IC50 was 5 to 10 µM in test [1] and < 5 µM on PDK1 kinase.

As to `NS(=O)(=O)c1ccc(Nc2ncc3ccc(-c4cccnc4)c(OC4CCNCC4)c3n2)cc1` [Compound 18, 4-[8-(Piperidin-4-yl-oxy)-7-pyridin-3-yl-quinazolin-2-ylamino]-benzenesulfonamide], the EC50 in the test with A2780 cells (72 h, 3 days incubation) is < 5 µM. In addition, the IC50 is 5 to 10 µM in test [1] and < 5 µM on PDK1 kinase.

For the molecule `Nc1ccc(-c2ccc3cnc(Nc4ccc(S(N)(=O)=O)cc4)nc3c2OC2CCNCC2)cn1` [Compound 21, 4-[7-(6-Amino-pyridin-3-yl)-8-(piperidin-4-yloxy)-quinazolin-2-ylamino]-benzenesulfonamide], in the test with A2780 cells (72 h, 3 days incubation), the EC50 is < 5 µM. Besides, the IC50 in test [1] was 5 to 10 µM; on PDK1 kinase, < 5 µM.

Take `COc1cncc(-c2ccc3cnc(Nc4ccc(S(N)(=O)=O)cc4)nc3c2OC2CCNCC2)c1` [Compound 23, 4-[7-(5-Methoxy-pyridin-3-yl)-8-(piperidin-4-yloxy)-quinazolin-2-ylamino]-benzenesulfonamlde]: the EC50 with A2780 cells (72 h, 3 days incubation) was < 5 µM. The figures for the IC50 (in test [1]; at PDK1 kinase) were 5 to 10 µM and < 5 µM, respectively.

With `NS(=O)(=O)c1ccc(Nc2ncc3ccc(-c4cn[nH]c4)c(OC4CCNCC4)c3n2)cc1` [Compound 24, 4-[8-(Piperidin-4-yloxy)-7-(1H-pyrazol-4-yl)-quinazolin-2-ylamino]-benzenesulfonamide], the EC50 in the test on A2780 cells (72 h, 3 days incubation) was < 5 µM. Moreover, the values for the IC50 (in test [1]; on PDK1 kinase) were 5 to 10 µM and < 5 µM, respectively.

In the case of `Cn1cc(-c2ccc3cnc(Nc4ccc(S(N)(=O)=O)cc4)nc3c2OC2CCNCC2)cn1` [Compound 25, 4-[7-(1-Methyl-1H-pyrazol-4-yl)-8-(piperidin-4-yloxy)-quinazolin-2-ylamino]-benzenesulfonamide], the EC50 with A2780 cells (72 h, 3 days incubation) is < 5 µM. Besides, the IC50 in test [1] is 5 to 10 µM; at PDK1 kinase it was < 5 µM.

On to `COc1cc(Nc2ncc3ccc(OC4CCNCC4)cc3n2)cc(OC)c1` [Compound 55, (3,5-Dimethoxy-phenyl)-[7-(piperidin-4-yloxy)-quinazolin-2-yl]-amine], for which the concentration for half-maximal inhibition (IC50) (in test [1]; on PDK1 kinase) was < 5 µM throughout. Further, in the test on PC-3 cells (setting [2]), the EC50 was < 5 µM.

For the molecule `CC(C)NS(=O)(=O)c1ccc(Nc2ncc3ccc(OC4CCN(C(C)C)CC4)cc3n2)cc1` [Compound 58, N-Isopropyl-4-[7-(1-isopropyl-piperidin-4-yloxy)-quinazolin-2-ylamino]-benzenesulfonamide], the IC50 (in test [1]; at PDK1 kinase) was < 5 µM throughout. Further, in the test on PC-3 cells (setting [2]), the EC50 was < 5 µM.

Regarding `Fc1ccc(Nc2ncc3ccc(OC4CCNCC4)cc3n2)cc1` [Compound 59, (4-Fluoro-phenyl)-[7-(piperidin-4-yloxy)-quinazolin-2-yl]-amine], the IC50 (in test [1]; at PDK1 kinase) was < 5 µM in each case. Also, the EC50 in the test on PC-3 cells (setting [2]) was < 5 µM.

On to `CNS(=O)(=O)Cc1ccc(Nc2ncc3ccc(OC4CCN(C(C)C)CC4)cc3n2)cc1` [Compound 61, C-{4-[7-(1-Isopropyl-piperidin-4-yloxy)-quinazolin-2-ylamino]-phenyl}-N-methyl-methanesulfonamide], for which the IC50 (in test [1]; on PDK1 kinase) was < 5 µM each time. Besides, the EC50 in the test with PC-3 cells (setting [2]) is < 5 µM.

With `CC(=O)Nc1ccc(Nc2ncc3ccc(OC4CCNCC4)cc3n2)cc1C` [Compound 63, N-{2-Methyl-4-[7-(piperidin-4-yloxy)-quinazolin-2-ylamino]-phenyl}-acetamide], the IC50 (in test [1]; at PDK1 kinase) was < 5 µM in each case. Further, in the test with PC-3 cells (setting [2]), the EC50 is < 5 µM.

Take `Nc1ncc(-c2ccc3cnc(Nc4ccc(S(N)(=O)=O)cc4)nc3c2OC2CCNCC2)cc1C(F)(F)F` [Compound 68, 4-[7-(6-Amino-5-trifluoromethyl-pyridin-3-yl)-8-(piperidin-4-yloxy)-quinazolin-2-ylamino]-benzenesulfonamide]: the figures for the IC50 (in test [1]; on PDK1 kinase) were 5 to 10 µM and < 5 µM, respectively. Moreover, the EC50 in the test on PC-3 cells (setting [2]) was < 5 µM.

`CNC(=O)Cc1ccc(Nc2ncc3cccc(OC4CCN(C(C)C)CC4)c3n2)cc1` [Compound 70, 2-{4-[8-(1-Isopropyl-piperidin-4-yloxy)-quinazolin-2-ylamino]-phenyl}-N-methyl-acetamide]: the IC50 in test [1] was 10 to 25 µM; at PDK1 kinase, < 5 µM. In the test on PC-3 cells (setting [2]), the EC50 is < 5 µM.

With `CC(C)NC(=O)Cc1ccc(Nc2ncc3cccc(OC4CCN(C(C)C)CC4)c3n2)cc1` [Compound 71, N-Isopropyl-2-{4-[8-(1-isopropyl-piperidin-4-yloxy)-quinazolin-2-ylamino]-phenyl}-acetamide], the results for the IC50 (in test [1]; on PDK1 kinase) were 5 to 10 µM and < 5 µM, respectively. The EC50 in the test on PC-3 cells (setting [2]) was < 5 µM.

In the case of `CC(C)N1CCC(Oc2cccc3cnc(Nc4ccc(N5CCOCC5)cc4)nc23)CC1` [Compound 72, [8-(1-Isopropyl-piperidin-4-yloxy)-quinazolin-2-yl]-(4-morpholin-4-yl-phenyl)-amine], the IC50 (in test [1]; on PDK1 kinase) was < 5 µM throughout. In the test on PC-3 cells (setting [2]), the EC50 was < 5 µM.

As to `CC(=O)Nc1ccc(Nc2ncc3cccc(OC4CCN(C(C)C)CC4)c3n2)cc1` [Compound 73, N-{4-[8-(1-Isopropyl-piperidin-4-yloxy)-quinazolin-2-ylamino]-phenyl}-acetamide], the IC50 in test [1] is 5 to 10 µM; at PDK1 kinase, < 5 µM. The EC50 with PC-3 cells (setting [2]) is < 5 µM.

As for `CNC(=O)Cc1cccc(Nc2ncc3cccc(OC4CCN(C(C)C)CC4)c3n2)c1` [Compound 77, 2-{3-[8-(1-Isopropyl-piperidin-4-yloxy)-quinazolin-2-ylamino]-phenyl}-N-methyl-acetamide], the IC50 (in test [1]; on PDK1 kinase) was < 5 µM throughout. Besides, the EC50 in the test on PC-3 cells (setting [2]) was < 5 µM.

Regarding `CC(=O)Nc1cccc(Nc2ncc3cccc(OC4CCN(C(C)C)CC4)c3n2)c1` [Compound 81], the concentration for half-maximal inhibition (IC50) (in test [1]; at PDK1 kinase) was < 5 µM each time. Further, in the test with PC-3 cells (setting [2]), the EC50 is < 5 µM.

Take `C#Cc1cc(OC2CCN(C(C)C)CC2)c2nc(Nc3ccc(S(N)(=O)=O)cc3)ncc2c1` [Compound 86, 4-[6-Ethynyl-8-(1-isopropyl-piperidin-4-yloxy)-quinazolin-2-ylamino]-benzenesulfonamide]: the IC50 (in test [1]; on PDK1 kinase) was < 5 µM in each case. The EC50 in the test with PC-3 cells (setting [2]) was < 5 µM.

For the molecule `NS(=O)(=O)c1ccc(Nc2ncc3cc(Br)cc(OC4CN5CCC4CC5)c3n2)cc1` (stereo not shown) [Compound 847, 4-(6-bromo-8-(quinuclidin-3-yloxy)quinazolin-2-ylamino)benzenesulfonamide], the EC50 in the test with A2780 cells (cell proliferation) is < 5 µM; with PC3MM cells it was < 5 µM; with PC-3 cells (PC-3, cell proliferation, PC3 cells, read-out: CPEC50 PC3), < 5 µM. For the same molecule, the IC50 at PDK1 kinase (PDK1 Kinase Alpha Screen Assay) was < 5 µM.
